Data reported in BindingDB's records for doi:10.1021/jm960012o (Allergan, 1996).

Assay: Displacement of [3H]-clonidine from bovine imidazoline receptor I-1

| Ki [nM] | SMILES |
| --- | --- |
| 8.9 | Clc1cccc(Cl)c1N=C1NCCN1 [2-(2,6-dichloroanilino)-2-imidazoline] |
| 42 | CC(C)C1C2CCC(C2)C1N (centres undefined) [3-Isopropyl-bicyclo[2.2.1]hept-2-ylamine] |
| > 100000 | NC[C@H](O)c1ccc(O)c(O)c1 [4-[(1R)-2-amino-1-hydroxyethyl]benzene-1,2-diol] |
| 56 | COc1nc(C)nc(Cl)c1N=C1NCCN1 [(4-Chloro-6-methoxy-2-methyl-pyrimidin-5-yl)-imidazolidin-2-ylidene-amine] |
